Common to all, as to assay type: functional
The test system of one test is Candida albicans. Description: Antifungal activity against Candida albicans 16231 after 24 hr by disk diffusion method. For DIZ: test concentration or dose not given here. A general note: In agar diffusion tests the substance spreads into inoculated agar from a disc or well.
For another test, the system named is Salmonella. As to the kind of experiment: Antibacterial activity against Salmonella 21.3 after 24 hr by disk diffusion method. For DIZ: test concentration or dose not given here.
For another test, the system named is Bacillus subtilis. Description: Antibacterial activity against Bacillus subtilis RSKK 240 after 24 hr by disk diffusion method. Note: test concentration or dose not given here.
The subject of a further test is Pseudomonas aeruginosa. Description: Antibacterial activity against Pseudomonas aeruginosa ATCC 27853 after 24 hr by disk diffusion method. For DIZ: test concentration or dose not given here.
Test [1] relates to Staphylococcus epidermidis. As to the kind of experiment: Antibacterial activity against Staphylococcus epidermidis Mu 30 after 24 hr by disk diffusion method. Note: test concentration or dose not given here.
The next test has as its system Saccharomyces cerevisiae. Description: Antifungal activity against Saccharomyces cerevisiae TP (3-2) after 24 hr by disk diffusion method. Note: test concentration or dose not given here.
Another test has as its system Shigella sonnei. Description: Antibacterial activity against Shigella sonnei RSKK 877 after 24 hr by disk diffusion method. For DIZ: test concentration or dose not given here. For diameter of the inhibition zone (DIZ): test concentration or dose not given here.
The subject of a further test is Escherichia coli. As to the kind of experiment: Antibacterial activity against Escherichia coli ATCC 35218 after 24 hr by disk diffusion method. For DIZ: test concentration or dose not given here.
A further test deals with Staphylococcus aureus. Description: Antibacterial activity against Staphylococcus aureus ATCC 25923 after 24 hr by disk diffusion method. Note: test concentration or dose not given here.
For a further test, the system named is Bacillus cereus. Description: Antibacterial activity against Bacillus cereus RSKK 863 after 24 hr by disk diffusion method. Note: test concentration or dose not given here.

Activity calls are given as the source filed them. No cut-off for these calls is given here.

The source of these data is ChEMBL document CHEMBL3044663, “Synthesis and antimicrobial activities of novel bisacridine-1,8-dione derivatives” (2011).

Take `O=C1CCCC2=C1C(c1cccc(C3C4=C(CCCC4=O)N(c4cccc(C(=O)O)c4)C4=C3C(=O)CCC4)c1)C1=C(CCCC1=O)N2c1cccc(C(=O)O)c1`: the “diameter of the inhibition zone (DIZ)” value with Candida albicans turned out to be 14 mm; in the test on Salmonella, 11 mm; in the test with Bacillus subtilis, 9 mm; in the test with Pseudomonas aeruginosa, 9 mm; in the test with Saccharomyces cerevisiae it was 11 mm; in the test on Escherichia coli it was 12 mm. The “diameter of the inhibition zone (DIZ)” value in the test on Bacillus cereus is 8 mm. Moreover, the “diameter of the inhibition zone (DIZ)” value (in [1]; in the test on Shigella sonnei; with Staphylococcus aureus) was “inactive” each time.
Consider `COc1ccccc1N1C2=C(C(=O)CC(C)(C)C2)C(c2cccc(C3C4=C(CC(C)(C)CC4=O)N(c4ccccc4OC)C4=C3C(=O)CC(C)(C)C4)c2)C2=C1CC(C)(C)CC2=O`, for which the “diameter of the inhibition zone (DIZ)” value in the test with Candida albicans is on record as 15 mm; with Salmonella, 8 mm; with Bacillus subtilis, 8 mm; with Pseudomonas aeruginosa, 10 mm; in test [1], 13 mm; in the test on Saccharomyces cerevisiae it was 14 mm. Moreover, the “diameter of the inhibition zone (DIZ)” value was found to be 12 mm in the test with Shigella sonnei, 14 mm in the test with Escherichia coli, 9 mm in the test with Staphylococcus aureus and 13 mm in the test on Bacillus cereus.
In the case of `CC1(C)CC(=O)C2=C(C1)N(c1ccc(C(=O)O)cc1)C1=C(C(=O)CC(C)(C)C1)C2c1cccc(C2C3=C(CC(C)(C)CC3=O)N(c3ccc(C(=O)O)cc3)C3=C2C(=O)CC(C)(C)C3)c1`, the “diameter of the inhibition zone (DIZ)” value is recorded as 12 mm with Candida albicans; 9 mm in the test with Salmonella; 11 mm in the test with Bacillus subtilis; 11 mm in test [1]; 13 mm with Saccharomyces cerevisiae; 11 mm with Shigella sonnei. In addition, the “diameter of the inhibition zone (DIZ)” value was 10 mm in the test with Escherichia coli and 9 mm with Bacillus cereus. The “diameter of the inhibition zone (DIZ)” value in the test on Pseudomonas aeruginosa and in the test with Staphylococcus aureus was “inactive” throughout.
With `CC1(C)S[C@@H]2[C@H](NC(=O)[C@H](N)c3ccccc3)C(=O)N2[C@H]1C(=O)O` [AMPICILLIN], the “diameter of the inhibition zone (DIZ)” value with Salmonella was determined as 23 mm; in the test on Bacillus subtilis, 24 mm; with Shigella sonnei, 22 mm; in the test on Escherichia coli, 27 mm; in the test with Staphylococcus aureus, 24 mm; in the test on Bacillus cereus, 20 mm.
Consider `O=C1CCCC2=C1C(c1cccc(C3C4=C(CCCC4=O)N(c4ccc(C(=O)O)cc4)C4=C3C(=O)CCC4)c1)C1=C(CCCC1=O)N2c1ccc(C(=O)O)cc1`, for which the “diameter of the inhibition zone (DIZ)” value is reported as 10 mm in the test with Candida albicans; 8 mm with Salmonella; 8 mm in the test on Bacillus subtilis; 10 mm in the test with Pseudomonas aeruginosa; 12 mm in test [1]; 9 mm with Shigella sonnei. Moreover, the “diameter of the inhibition zone (DIZ)” value in the test on Escherichia coli was 9 mm; in the test on Staphylococcus aureus, 11 mm. Besides, the “diameter of the inhibition zone (DIZ)” value in the test with Saccharomyces cerevisiae and in the test on Bacillus cereus was “inactive” throughout.
Turning to `CC1(C)CC(=O)C2=C(C1)N(c1cccc(C(=O)O)c1)C1=C(C(=O)CC(C)(C)C1)C2c1cccc(C2C3=C(CC(C)(C)CC3=O)N(c3cccc(C(=O)O)c3)C3=C2C(=O)CC(C)(C)C3)c1`, the “diameter of the inhibition zone (DIZ)” value with Candida albicans is 16 mm; with Salmonella it was 11 mm; in the test with Bacillus subtilis, 9 mm; in the test on Pseudomonas aeruginosa it was 9 mm; with Saccharomyces cerevisiae, 16 mm; with Shigella sonnei, 10 mm. The “diameter of the inhibition zone (DIZ)” value with Escherichia coli was found to be 9 mm; in the test with Staphylococcus aureus, 10 mm; with Bacillus cereus it was 8 mm. Moreover, the “diameter of the inhibition zone (DIZ)” value in test [1] was “inactive”.
For the compound `CC1(C)CC(=O)C2=C(C1)N(c1ccc(Br)cc1)C1=C(C(=O)CC(C)(C)C1)C2c1ccc(C2C3=C(CC(C)(C)CC3=O)N(c3ccc(Br)cc3)C3=C2C(=O)CC(C)(C)C3)cc1`, the “diameter of the inhibition zone (DIZ)” value in the test with Candida albicans is 11 mm; in the test on Salmonella, 10 mm; in the test with Pseudomonas aeruginosa it was 10 mm; in test [1] it was 10 mm; in the test on Saccharomyces cerevisiae, 16 mm; in the test on Shigella sonnei, 12 mm. In addition, the “diameter of the inhibition zone (DIZ)” value was 10 mm in the test on Escherichia coli and 12 mm with Staphylococcus aureus. Moreover, the “diameter of the inhibition zone (DIZ)” value with Bacillus subtilis and with Bacillus cereus was “inactive” in each case.
Turning to `COc1cccc(N2C3=C(C(=O)CC(C)(C)C3)C(c3cccc(C4C5=C(CC(C)(C)CC5=O)N(c5cccc(OC)c5)C5=C4C(=O)CC(C)(C)C5)c3)C3=C2CC(C)(C)CC3=O)c1`, the “diameter of the inhibition zone (DIZ)” value (with Candida albicans; with Salmonella; in the test on Bacillus subtilis; in test [1]; with Saccharomyces cerevisiae; in the test with Staphylococcus aureus) was “inactive” in each case. For the same compound, the “diameter of the inhibition zone (DIZ)” value with Pseudomonas aeruginosa is 7 mm; in the test with Shigella sonnei, 12 mm; in the test on Escherichia coli, 10 mm; in the test on Bacillus cereus it was 13 mm.
Regarding `CC(=O)N1CCN(c2ccc(OCC3COC(Cn4ccnc4)(c4ccc(Cl)cc4Cl)O3)cc2)CC1` (configuration not stated) [KETOCONAZOLE], the “diameter of the inhibition zone (DIZ)” value came to 21 mm in the test with Candida albicans and 24 mm in the test with Saccharomyces cerevisiae.
Consider `Cc1cccc(N2C3=C(C(=O)CCC3)C(c3cccc(C4C5=C(CCCC5=O)N(c5cccc(C)n5)C5=C4C(=O)CCC5)c3)C3=C2CCCC3=O)n1`, for which the “diameter of the inhibition zone (DIZ)” value with Candida albicans is given as 14 mm; in the test on Salmonella, 9 mm; in the test with Pseudomonas aeruginosa, 9 mm; in test [1], 8 mm; in the test with Saccharomyces cerevisiae, 17 mm; in the test with Shigella sonnei, 9 mm. Further, the “diameter of the inhibition zone (DIZ)” value in the test with Escherichia coli was found to be 12 mm; in the test on Staphylococcus aureus, 18 mm. Further, the “diameter of the inhibition zone (DIZ)” value in the test on Bacillus subtilis and with Bacillus cereus was “inactive” throughout.
With `COc1ccccc1N1C2=C(C(=O)CCC2)C(c2cccc(C3C4=C(CCCC4=O)N(c4ccccc4OC)C4=C3C(=O)CCC4)c2)C2=C1CCCC2=O`, the “diameter of the inhibition zone (DIZ)” value (in the test on Candida albicans; in the test on Salmonella; in the test on Bacillus subtilis; in the test with Pseudomonas aeruginosa; in [1]; in the test with Saccharomyces cerevisiae) was “inactive” throughout. The “diameter of the inhibition zone (DIZ)” value in the test on Shigella sonnei, with Escherichia coli, in the test on Staphylococcus aureus and with Bacillus cereus was “inactive” in each case.
Take `CC1(C)CC(=O)C2=C(C1)N(c1ccccc1C#N)C1=C(C(=O)CC(C)(C)C1)C2c1cccc(C2C3=C(CC(C)(C)CC3=O)N(c3ccccc3C#N)C3=C2C(=O)CC(C)(C)C3)c1`: the “diameter of the inhibition zone (DIZ)” value in the test with Candida albicans was 14 mm; with Salmonella it was 9 mm; in the test with Pseudomonas aeruginosa, 9 mm; in [1] it was 9 mm; in the test on Saccharomyces cerevisiae, 14 mm; in the test on Shigella sonnei, 10 mm. Further, the “diameter of the inhibition zone (DIZ)” value with Escherichia coli and with Staphylococcus aureus was 12 mm each time. Besides, the “diameter of the inhibition zone (DIZ)” value in the test on Bacillus subtilis and in the test on Bacillus cereus was “inactive” throughout.
For the compound `N#Cc1ccccc1N1C2=C(C(=O)CCC2)C(c2cccc(C3C4=C(CCCC4=O)N(c4ccccc4C#N)C4=C3C(=O)CCC4)c2)C2=C1CCCC2=O`, the “diameter of the inhibition zone (DIZ)” value stood at 13 mm in the test with Candida albicans; 11 mm in the test with Salmonella; 14 mm in the test with Pseudomonas aeruginosa; 10 mm in [1]; 20 mm in the test on Saccharomyces cerevisiae; 10 mm with Shigella sonnei. For the same compound, the “diameter of the inhibition zone (DIZ)” value in the test on Escherichia coli is 8 mm; with Staphylococcus aureus it was 10 mm. Further, the “diameter of the inhibition zone (DIZ)” value in the test on Bacillus subtilis and in the test with Bacillus cereus was “inactive” throughout.
For the compound `CC1(C)CC(=O)C2=C(C1)N(c1ccc(Cl)cc1)C1=C(C(=O)CC(C)(C)C1)C2c1ccc(C2C3=C(CC(C)(C)CC3=O)N(c3ccc(Cl)cc3)C3=C2C(=O)CC(C)(C)C3)cc1`, the “diameter of the inhibition zone (DIZ)” value is on record as 10 mm in the test on Candida albicans; 12 mm with Salmonella; 9 mm in the test on Pseudomonas aeruginosa; 7 mm in test [1]; 14 mm in the test with Saccharomyces cerevisiae; 10 mm in the test on Shigella sonnei. For the same compound, the “diameter of the inhibition zone (DIZ)” value in the test with Escherichia coli was 12 mm; in the test with Staphylococcus aureus it was 9 mm. For the same compound, the “diameter of the inhibition zone (DIZ)” value in the test with Bacillus subtilis and in the test on Bacillus cereus was “inactive” throughout.
In the case of GENTAMICIN, the inhibition zone (IZ) with Salmonella came out at 10 mm; in the test with Pseudomonas aeruginosa, 20 mm; in the test with Shigella sonnei it was 11 mm; in the test with Escherichia coli, 15 mm.
